{"source": "patent US20220213156A1", "about": "“Peptides for use in therapy or prophylaxis of Herpesviridae-infections” (priority 2019, published 2022)", "test_system": "clinical HCMV isolates", "experiment": "Infection assays with clinical isolates on HFF", "assay_type": "cell-based, Human Cytomegalovirus", "protocol": "The antiviral activity of HD5 (1-9) (SEQ ID No. 1) in concentrations from 1.56 μM to 100 μM against infection with clinical HCMV isolates was investigated on HFF. In addition to the laboratory-adapted strain TB40/E-ΔUL16-eGFP, which served as reference strain, a breast milk-derived strain, an amniotic fluid-isolated strain and a multidrug-resistant viral isolate from leukocytes of a recipient after the third stem cell transplantation were used. The therapy-naïve strain from cell free milk whey (H1241-2016) was derived from a […] of a preterm infant 10 weeks postpartum during end of viral reactivation. The amnion fluid derived virus strain (H2497-2011) was isolated following termination of pregnancy based on severe fetal brain damage. The multidrug resistant CMV isolate (H815-2006) is already described (Gohring et al., “Dynamics of coexisting HCMV-UL97 and UL54 drug-resistance associated mutations in patients after haematopoietic cell transplantation”, J. Clin. Virol. 57(1):43-49, 2013). […] All viral isolates were primarily HFF-adapted and propagated in vitro with at least 10 passages to get TCID values of cell free viral supernatants of […].\nNext, a peptide of the invention, i.e. HD5 (1-9) was tested on clinical HCMV isolates. 10 000 HFF were seeded into each well of a 96-well-plate containing 200 μl of medium. Cells were incubated overnight at 37° C. and 5% CO2. Next day medium was changed to medium without P/S. Cells were infected with different clinical HCMV isolates (MOI 0,2) and treated with peptide in concentrations from 1.56 μM to 100 μM in a volume of 100 μl. After 40 h of incubation cells were fixed with 2% PFA in PBS and permeabilised with 90% methanol in H2O. Afterwards an antibody staining for IE-antigens was performed and nuclei were stained with DAPI. Infection rate was analysed (IE+/DAPI+, normalized to medium control, n=1).\nHCMV TB40/E is a lab-adapted strain that might differ from primary HCMV isolates in terms of cellular tropism, infectivity or cytopathic properties. […]", "note": "Residues, ends and D or L forms follow the SMILES beside them."}
{"molecule": "C[C@H](N)C(=O)N[C@H](C(=O)N[C@@H](CS)C(=O)N[C@@H](Cc1ccc(O)cc1)C(=O)N[C@@H](CS)C(=O)N[C@@H](CCCNC(=N)N)C(=O)N[C@H](C(=O)NCC(=O)N[C@@H](CCCNC(=N)N)C(=O)O)[C@@H](C)O)[C@@H](C)O", "note": "[HD5 (1-9), ATCYCRTGR] (H-ATCYCRTGR-OH; N-terminus and C-terminus assumed)", "values": [{"measurement": "inhibition of HCMV infection", "setting": "100 μM in HFF, MOI 0.2 and 0.1", "value": "inhibited HCMV infection efficiently"}, {"measurement": "concentration at which inhibition of infection with all clinical isolates starts", "setting": "HFF, 40 h", "value": "≥ 50", "unit": "µM"}, {"measurement": "inhibition of infection with primary isolates (amniotic fluid, breast milk, multiresistant leukocyte isolate)", "setting": "HFF, MOI 0.2 and 0.1", "value": "sensitive towards inhibition"}]}
